Experimental findings from US5461044A, “Cephalosporin derivatives” (Meiji Seika Kaisha, Ltd., priority 1991, dated 1995) are described below.

Converted amounts (≈) assume the structure as drawn. Where two headings read alike, the source gives them in different places.

The test system of data set [1] is Staphylococcus aureus M133. The experiment in a line: Minimum growth inhibition concentration, standard serial dilution method. In kind it is cell-based. The conditions noted are these: Staphylococcus aureus M133 (methicillin-resistant); 10^6 CFU/ml, 35° C., 18 to 20 hours. The procedure:
(§1) In this Test Example, the antibacterial activity of some exemplary compounds indicated below and chosen from amongst the compounds of the general formula (I) according to this invention is illustrated by determining their minimum growth inhibition concentrations to various bacteria as measured by a standard serial dilution method. In this case, the determination was carried out by inoculating 10^6 CFU/ml of test bacteria to a culture medium N for sensitive disc (as prepared by Nissui Pharmaceutical Co., Ltd.), incubating the bacteria at 35° C. for 18 to 20 hours, and then evaluating the bacterial growth. Test compounds used are as follows:
(§2) The measured values of the minimum growth inhibition concentrations ([…]) of the above-mentioned compounds A, B and C are shown in Table 1.
(§3) Note: (*) means methicillinresistant Staphylococus aureus.

The subject of data set [2] is Staphylococcus aureus M126. The data set is described as above. In kind it is cell-based. The conditions noted are these: Staphylococcus aureus M126 (methicillin-resistant); 10^6 CFU/ml, 35° C., 18 to 20 hours. The protocol:
as §1, §2, §3

Data set [3] deals with Klebsiella pneumoniae PCI602. Described as above. It is filed as cell-based. The procedure:
as §1, §2

Data set [4] has as its system Escherichia coli NIHJ JC-2. Described as above. It is filed as cell-based. The protocol:
as §1, §2

The test system of data set [5] is Marganella morganii 1510/S-1. The description is as above. The conditions noted are these: read-out: Minimum growth inhibition concentration. In kind it is cell-based. The procedure: as §1, §2
The test system of a further data set is Proteus vulgaris GN76. Described as above. It is filed as cell-based. The procedure: as §1, §2
In data set [6] the test system is Staphylococcus aureus 209P JC-1. The data set is described as above. The conditions noted are these: read-out: Minimum growth inhibition concentration. It is filed as cell-based. The procedure: as §1, §2
The test system of data set [7] is Staphylococcus epidermidis ATCC14990. The description is as above. The conditions noted are these: 10^6 CFU/ml, 35° C., 18 to 20 hours. It is filed as cell-based. The protocol:
as §1, §2

Data set [8] is described as follows: Toxicity (LD50) on intravenous administration in mice. The conditions noted are these: mouse, in vivo. The protocol:
The cephalosporin derivative of the general formula (I) according to this invention can safely be administered to mammals because it is of low toxicity. […] The new cephalosporin derivative of this invention may be administered orally at a unit dose of 100 mg to 250 mg to an adult human patient four times a day, for a guideline. However, precise dosage of the new cephalosporin derivative of this invention is determinable through preliminary routine experiments, depending on the body weight, ages, sex and other various parameters of patients as well as the nature of the bacterial infections to be treated, and so on.

Data set [9] can be described thus: Concentration in blood upon subcutaneous injection in mice (HPLC, serum). It is filed as in vivo, mice of ICR strain. The conditions noted are these: sc, male ICR mice, 0.5 mg per mouse; for half-life / AUC: Gauss-Newton method; for AUC: read-out: AUC (Area under the plasma concentration-time curve); for Cmax: HPLC, read-out: Maximum concentration in blood. The protocol:
Test compounds used are as follows:
The test procedure used was as follows. That is, 5 mice of ICR strain (male, 4-weeks-aged, 1 mouse in each group/at the time of collection of blood samples) were used as test animal and 0.5 mg of each test compound dissolved in 0.2 ml of a purified water sterilized for injection was subcutaneously injected to each mouse. Blood samples were collected from each mouse 5 minutes, 15 minutes, 30 minutes, 1 hour and 2 hours after the aministration of test compound. Each blood sample as collected was post-treated in a usual manner and the concentration of the cephem compound in the serum was then quantitatively determined by the use of HPLC (High Performance Liquid Chromatography). A half-life value and AUC which were pharmacokinetic parameters were calculated by the Gauss-Newton method.
AUC means "Area under the plasma concentration-time curve".

[10] abbreviates: Proteus vulgaris GN76, 10^6 CFU/ml, 35° C., 18 to 20 hours, read-out: Minimum growth inhibition concentration.
Setting [11] is: Klebsiella pneumoniae, PCI602, read-out: Minimum growth inhibition concentration.
The mark [12] stands for this setting: Escherichia coli, NIHJJC2, read-out: Minimum growth inhibition concentration.

As to `Nc1nc(/C(=N/O)C(=O)NC2C(=O)N3C(C(=O)O)=C(Sc4nc5ccccc5s4)CS[C@H]23)cs1` (stereo partly shown) [B, 7-[(Z)-2-(2-aminothiazol-4-yl)-2hydroxyiminoacetamido]-3-(benzothiazol-2-yl)thio-3-cephem-4-carboxylic acid], the MIC in data set [1] is 1.56 µg/mL (≈ 2.92 µM); in [2], 3.13 µg/mL (≈ 5.85 µM); in [3] (Klebsiella pneumoniae PCI602, 10^6 CFU/ml, 35° C., 18 to 20 hours, read-out: Minimum growth inhibition concentration) it was 25 µg/mL (≈ 46.8 µM); in data set [4] (NIHJJC2, Escherichia coli NIHJ JC-2, 10^6 CFU/ml, 35° C., 18 to 20 hours, read-out: Minimum growth inhibition concentration) it was 25 µg/mL (≈ 46.8 µM); in data set [5], 3.13 µg/mL (≈ 5.85 µM); in the data set with Proteus vulgaris GN76 (setting [10]), 100 µg/mL (≈ 187 µM). Moreover, the MIC in data set [6] and in [7] was 0.2 µg/mL (≈ 0.374 µM) each time.
As usually defined, the LD50 is the dose expected to kill half of the subjects tested. A higher LD50 goes with a less toxic substance. Broadly, the half-life is how long it takes for the measured level to halve. Higher therefore signals slow decline. Turning to `CO/N=C(\C(=O)NC1C(=O)N2C(C(=O)O)=C(Sc3nc4ccccc4s3)CS[C@H]12)c1csc(N)n1` (stereo partly shown) [Compound A, 7-[(Z)-2-(2-aminothiazol-4-yl)-2methoxyiminoacetamido]-3-(benzothiazol-2-yl)thio-3-cephem-4-carboxylic acid], the MIC in data set [1] is 3.13 µg/mL (≈ 5.7 µM); in [2] it was 6.25 µg/mL (≈ 11.4 µM); in data set [3] (setting [11]), 3.13 µg/mL (≈ 5.7 µM); in data set [4] (setting [12]), 3.13 µg/mL (≈ 5.7 µM); in data set [5] it was 0.78 µg/mL (≈ 1.42 µM); in the data set on Proteus vulgaris GN76 (Proteus vulgaris, GN76, read-out: Minimum growth inhibition concentration), 3.13 µg/mL (≈ 5.7 µM). Further, the MIC came to 0.39 µg/mL (≈ 0.711 µM) in data set [6] and 0.2 µg/mL (≈ 0.365 µM) in data set [7]. In addition, the LD50 in [8] lay in the range of 1000 to 1500 mg/kg. Besides, the half-life in [9] was 42 min. In addition, in [9], the AUC is 62500 ng·h/mL. Moreover, in data set [9], the Cmax came to 51.6 µg/mL.
As for `Nc1nc(/C(=N/OCC(=O)O)C(=O)NC2C(=O)N3C(C(=O)O)=C(Sc4nc5ccccc5s4)CSC23)cs1` (stereo not shown) [Compound C, 7-[(Z)-2-(2-aminothiazol-4-yl)-2carboxymethoxyiminoacetamido]-3-(benzothiazol-2-yl)thio3-cephem-4-carboxylic acid], the MIC in data set [1] was 12.5 µg/mL (≈ 21.1 µM); in data set [2], 50 µg/mL (≈ 84.4 µM); in data set [3] (setting [11]) it was 3.13 µg/mL (≈ 5.28 µM); in data set [4] (setting [12]) it was 3.13 µg/mL (≈ 5.28 µM); in [5], 0.78 µg/mL (≈ 1.32 µM); in the data set with Proteus vulgaris GN76 (setting [10]) it was 0.1 µg/mL (≈ 0.169 µM). For the same compound, the MIC in data set [6] turned out to be 3.13 µg/mL (≈ 5.28 µM); in data set [7], 1.56 µg/mL (≈ 2.63 µM). In addition, in data set [9], the half-life is 55.2 min. Further, the AUC in data set [9] turned out to be 131000 ng·h/mL. The Cmax in [9] worked out at 80.8 µg/mL.
